Data: patent US7138361B2, “Herbicidal heterocycles” (E. I. du Pont de Nemours and Company, priority 2000, dated 2006)

Experiments:
Type in all cases: in vivo
[1] = system: barnyardgrass (Echinochloa crus-galli); assay: Test B postemergence
Excerpt: (§1) Seeds selected from barnyardgrass (Echinochloa crus-galli), Surinam grass (Brachiaria decumbens), cocklebur (Xanthium strumarium), corn (Zea mays), crabgrass (Digitaria sanguinalis), giant foxtail (Setaria faberii), lambsquarters (Chenopodium album), morning glory (Ipomoea hederacea), pigweed (Amaranthus retroflexus), rice (Oryza saliva) and velvetleaf (Abutilon theophrasti) were planted and treated preemergence with test chemicals formulated in a non-phytotoxic solvent mixture which included a surfactant.
(§2) At the same time, plants selected from these crop and weed species and also blackgrass (Alopecurus myosuroides), wheat (Triticum aestivum) and wild oat (Avena fatua) were treated with postemergence applications of test chemicals formulated in the same manner. Plants ranged in height from 2 to 18 cm (1- to 4-leaf stage) for postemergence treatments. Plant species in the flooded paddy test consisted of rice (Oryza saliva), smallflower flatsedge (Cyperus difformis), duck salad (Heteranthera limosa) and barnyardgrass (Echinochloa crus-galli) grown to the 2-leaf stage for testing. Treated plants and controls were maintained in a greenhouse for 13 to 15 days, after which time all species were compared to controls and visually evaluated. Plant response ratings, summarized in Table B, are based on a scale of 0 to 100 where 0 is no effect and 100 is complete control. A dash (-) response means no test result.

[2] = system: Surinam grass (Brachiaria decumbens); assay: Test B postemergence
Excerpt: as §1, §2

[3] = system: giant foxtail (Setaria faberii); assay: Test B postemergence
Excerpt: as §1, §2

[4] = system: crabgrass (Digitaria sanguinalis); assay: Test B postemergence
Excerpt: as §1, §2

wild oat (Avena fatua) = assay: Test B postemergence
Excerpt: as §1, §2

[5] = system: pigweed (Amaranthus retroflexus); assay: Test B postemergence
Excerpt: as §1, §2

[6] = system: morning glory (Ipomoea hederacea); assay: Test B postemergence
Excerpt: as §1, §2

[7] = system: cocklebur (Xanthium strumarium); assay: Test B postemergence
Excerpt: as §1, §2

[8] = system: velvetleaf (Abutilon theophrasti); assay: Test B postemergence
Excerpt: as §1, §2

[9] = system: wheat (Triticum aestivum); assay: Test B postemergence
Excerpt: as §1, §2

corn (Zea mays) [10] = assay: Test B postemergence
Excerpt: as §1, §2

[11] = system: blackgrass (Alopecurus myosuroides); assay: Test B postemergence
Excerpt: as §1, §2

[12] = system: lambsquarters (Chenopodium album); assay: Test B postemergence
Excerpt: as §1, §2

[13] = system: barnyardgrass (Echinochloa crus-galli); assay: Test C flooded paddy test; details: for Barnyardgrass plant response rating: Flooded Paddy, scale 0 to 100, 0 no effect, 100 complete control; for Plant response rating, Barnyardgrass: scale 0 to 100 (0 no effect, 100 complete control)
Method in brief: (§3)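 Ratings come from visual comparison with control plants after 12 to 14 days in the greenhouse. Each species was at the 2-leaf stage when the flooded paddy was treated. Scores run from 0, meaning no effect, to 100, meaning complete control.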

[14] = system: duck salad (Heteranthera limosa); assay: Test C flooded paddy test; details: for Ducksalad plant response rating: Flooded Paddy, scale 0 to 100, 0 no effect, 100 complete control; for Plant response rating, Ducksalad: scale 0 to 100 (0 no effect, 100 complete control)
Method in brief: as §3

rice (Oryza saliva) [15] = assay: Test C flooded paddy test; details: for Rice plant response rating: Flooded Paddy, scale 0 to 100, 0 no effect, 100 complete control; for Plant response rating, Rice: scale 0 to 100 (0 no effect, 100 complete control)
Method in brief: as §3

[16] = system: smallflower flatsedge (Cyperus difformis); assay: Test C flooded paddy test; details: for Flatsedge plant response rating: Flooded Paddy, scale 0 to 100, 0 no effect, 100 complete control; for Plant response rating, Flatsedge: scale 0 to 100 (0 no effect, 100 complete control)
Method in brief: as §3

[17] = system: barnyardgrass (Echinochloa crus-galli); assay: Test B preemergence
Excerpt: as §1, §2

[18] = system: Surinam grass (Brachiaria decumbens); assay: Test B preemergence
Excerpt: as §1, §2

[19] = system: giant foxtail (Setaria faberii); assay: Test B preemergence
Excerpt: as §1, §2

[20] = system: crabgrass (Digitaria sanguinalis); assay: Test B preemergence
Excerpt: as §1, §2

[21] = system: pigweed (Amaranthus retroflexus); assay: Test B preemergence
Excerpt: as §1, §2

[22] = system: morning glory (Ipomoea hederacea); assay: Test B preemergence
Excerpt: as §1, §2

[23] = system: cocklebur (Xanthium strumarium); assay: Test B preemergence
Excerpt: as §1, §2

[24] = system: velvetleaf (Abutilon theophrasti); assay: Test B preemergence
Excerpt: as §1, §2

rice (Oryza saliva) [25] = assay: Test B preemergence
Excerpt: as §1, §2

corn (Zea mays) [26] = assay: Test B preemergence
Excerpt: as §1, §2

[27] = system: lambsquarters (Chenopodium album); assay: Test B preemergence
Excerpt: as §1, §2

[28] = Rate 125 g/ha, scale 0 to 100, 0 no effect, 100 complete control
[29] = Rate 500 g/ha, scale 0 to 100, 0 is no effect, 100 is complete control, 13 to 15 days
[30] = flooded paddy test, Rate 62 g/ha
[31] = flooded paddy test, Rate 125 g/ha
[32] = Preemergence, Rate 500 g/ha, scale 0 to 100, 0 no effect, 100 complete control
[33] = preemergence, Rate 125 g/ha, scale of 0 to 100 where 0 is no effect and 100 is complete control, 13 to 15 days
[34] = Rate 500 g/ha, scale 0 (no effect) to 100 (complete control), 13 to 15 days
[35] = flooded paddy test, Rate 250 g/ha
[36] = flooded paddy test, Rate 62 g/ha, visually evaluated after 12 to 14 days, 0 = no effect, 100 = complete control

CCCCC(CCCC)c1ccn(C2SCN(c3cccc(OC(F)(F)F)c3)C2=O)n1 (centres unmarked) [Compound 115]
Plant response rating, Barnyardgrass [1, 28]: 0 | Plant response rating, Barnyardgrass [1, 29]: 0 | Plant response rating, Surinam grass [2, 28]: 20 | Plant response rating, Surinam grass [2, 29]: 100 | Plant response rating, Foxtail, Giant [3, 28]: 0 | Plant response rating, Foxtail, Giant [3, 29]: 0 | Plant response rating, Crabgrass [4, 28]: 20 | Plant response rating, Crabgrass [4, 29]: 30 | Plant response rating, Wild Oat (wild oat (Avena fatua); [28]): 30 | Plant response rating, Wild Oat (wild oat (Avena fatua); [29]): 60 | Plant response rating, Pigweed [5, 28]: 50 | Plant response rating, Pigweed [5, 29]: 60 | Plant response rating, Morningglory [6, 28]: 0 | Plant response rating, Morningglory [6, 29]: 0 | Plant response rating, Cocklebur [7, 28]: 20 | Plant response rating, Cocklebur [7, 29]: 70 | Plant response rating, Velvetleaf [8, 28]: 0 | Plant response rating, Velvetleaf [8, 29]: 0 | Plant response rating, Wheat [9, 28]: 40 | Plant response rating, Wheat [9, 29]: 50 | Plant response rating, Corn (corn (Zea mays) [10]; [28]): 20 | Plant response rating, Corn (corn (Zea mays) [10]; [29]): 20 | Plant response rating, Blackgrass [11, 28]: 0 | Plant response rating, Blackgrass [11, 29]: 0 | Plant response rating, Lambsquarters [12, 28]: 0 | Plant response rating, Lambsquarters [12, 29]: 0 | Barnyardgrass plant response rating ([13]; Rate 250 g/ha): 0 | Barnyardgrass plant response rating ([13]; Rate 500 g/ha): 0 | Plant response rating, Barnyardgrass [13, 30]: 0 | Plant response rating, Barnyardgrass [13, 31]: 0 | Ducksalad plant response rating ([14]; Rate 250 g/ha): 0 | Ducksalad plant response rating ([14]; Rate 500 g/ha): 0 | Plant response rating, Ducksalad [14, 30]: 0 | Plant response rating, Ducksalad [14, 31]: 0 | Rice plant response rating (rice (Oryza saliva) [15]; Rate 250 g/ha): 0 | Rice plant response rating (rice (Oryza saliva) [15]; Rate 500 g/ha): 0 | Plant response rating, Rice (rice (Oryza saliva) [15]; [30]): 0 | Plant response rating, Rice (rice (Oryza saliva) [15]; [31]): 0 | Flatsedge plant response rating ([16]; Rate 250 g/ha): 0 | Flatsedge plant response rating ([16]; Rate 500 g/ha): 0 | Plant response rating, Flatsedge [16, 30]: 0 | Plant response rating, Flatsedge [16, 31]: 0 | Plant response rating, Barnyardgrass [17, 32]: 0 | Plant response rating, Barnyardgrass [17, 33]: 0 | Plant response rating, Surinam grass [18, 32]: 0 | Plant response rating, Surinam grass [18, 33]: 0 | Plant response rating, Foxtail, Giant [19, 32]: 0 | Plant response rating, Foxtail, Giant [19, 33]: 0 | Plant response rating, Crabgrass [20, 32]: 0 | Plant response rating, Crabgrass [20, 33]: 0 | Plant response rating, Pigweed [21, 32]: 0 | Plant response rating, Pigweed [21, 33]: 0 | Plant response rating, Morningglory [22, 32]: 0 | Plant response rating, Morningglory [22, 33]: 0 | Plant response rating, Cocklebur [23, 32]: 0 | Plant response rating, Cocklebur [23, 33]: 0 | Plant response rating, Velvetleaf [24, 32]: 0 | Plant response rating, Velvetleaf [24, 33]: 0 | Plant response rating, Rice (rice (Oryza saliva) [25]; [32]): 0 | Plant response rating, Rice (rice (Oryza saliva) [25]; [33]): 0 | Plant response rating, Corn (corn (Zea mays) [26]; [32]): 0 | Plant response rating, Corn (corn (Zea mays) [26]; [33]): 0 | Plant response rating, Lambsquarters [27, 32]: 0 | Plant response rating, Lambsquarters [27, 33]: 0

COc1cc(C)nc(N2CCC(n3ccc(C(C)(C)C)n3)C2=O)n1 (centres unmarked) [Compound 137]
Plant response rating, Barnyardgrass [1, 28]: 0 | Plant response rating, Barnyardgrass [1, 34]: 0 | Plant response rating, Surinam grass [2, 28]: 0 | Plant response rating, Surinam grass [2, 34]: 0 | Plant response rating, Foxtail, Giant [3, 28]: 0 | Plant response rating, Foxtail, Giant [3, 34]: 90 | Plant response rating, Crabgrass [4, 28]: 0 | Plant response rating, Crabgrass [4, 34]: 0 | Plant response rating, Wild Oat (wild oat (Avena fatua); [28]): 0 | Plant response rating, Wild Oat (wild oat (Avena fatua); [34]): 0 | Plant response rating, Pigweed [5, 28]: 0 | Plant response rating, Pigweed [5, 34]: 0 | Plant response rating, Morningglory [6, 28]: 0 | Plant response rating, Morningglory [6, 34]: 0 | Plant response rating, Cocklebur [7, 28]: 0 | Plant response rating, Cocklebur [7, 34]: 0 | Plant response rating, Velvetleaf [8, 28]: 0 | Plant response rating, Velvetleaf [8, 34]: 0 | Plant response rating, Wheat [9, 28]: 0 | Plant response rating, Wheat [9, 34]: 0 | Plant response rating, Corn (corn (Zea mays) [10]; [28]): 0 | Plant response rating, Corn (corn (Zea mays) [10]; [34]): 0 | Plant response rating, Blackgrass [11, 28]: 0 | Plant response rating, Blackgrass [11, 34]: 0 | Plant response rating, Lambsquarters [12, 28]: 0 | Plant response rating, Lambsquarters [12, 34]: 0 | Barnyardgrass plant response rating ([13]; Rate 500 g/ha): 0 | Plant response rating, Barnyardgrass [13, 31]: 0 | Plant response rating, Barnyardgrass [13, 35]: 0 | Plant response rating (scale 0 to 100), Barnyardgrass [13, 36]: 0 | Ducksalad plant response rating ([14]; Rate 500 g/ha): 0 | Plant response rating, Ducksalad [14, 31]: 0 | Plant response rating, Ducksalad [14, 35]: 0 | Plant response rating (scale 0 to 100), Ducksalad [14, 36]: 0 | Rice plant response rating (rice (Oryza saliva) [15]; Rate 500 g/ha): 0 | Plant response rating, Rice (rice (Oryza saliva) [15]; [31]): 0 | Plant response rating, Rice (rice (Oryza saliva) [15]; [35]): 0 | Plant response rating (scale 0 to 100), Rice (rice (Oryza saliva) [15]; [36]): 0 | Flatsedge plant response rating ([16]; Rate 500 g/ha): 0 | Plant response rating, Flatsedge [16, 31]: 0 | Plant response rating, Flatsedge [16, 35]: 0 | Plant response rating (scale 0 to 100), Flatsedge [16, 36]: 0 | Plant response rating, Barnyardgrass [17, 32]: 40 | Plant response rating, Barnyardgrass [17, 33]: 0 | Plant response rating, Surinam grass [18, 32]: 50 | Plant response rating, Surinam grass [18, 33]: 0 | Plant response rating, Foxtail, Giant [19, 32]: 0 | Plant response rating, Foxtail, Giant [19, 33]: 0 | Plant response rating, Crabgrass [20, 32]: 80 | Plant response rating, Crabgrass [20, 33]: 0 | Plant response rating, Pigweed [21, 32]: 0 | Plant response rating, Pigweed [21, 33]: 0 | Plant response rating, Morningglory [22, 32]: 0 | Plant response rating, Morningglory [22, 33]: 0 | Plant response rating, Cocklebur [23, 32]: 80 | Plant response rating, Cocklebur [23, 33]: 0 | Plant response rating, Velvetleaf [24, 32]: 80 | Plant response rating, Velvetleaf [24, 33]: 0 | Plant response rating, Rice (rice (Oryza saliva) [25]; [32]): 70 | Plant response rating, Rice (rice (Oryza saliva) [25]; [33]): 30 | Plant response rating, Corn (corn (Zea mays) [26]; [32]): 0 | Plant response rating, Corn (corn (Zea mays) [26]; [33]): 0 | Plant response rating, Lambsquarters [27, 32]: 0 | Plant response rating, Lambsquarters [27, 33]: 0
